# Results reported in US8247211B2, “Glycopeptide antibiotics” (American Cyanamid Company, priority 2001, dated 2012).
# Several values for one entry are separate records, joined by “and”; a condition that tells them apart may be missing. Equal entries are not always repeated.
# Key:
# [1] = format: in vivo; details: mice, 20 mg/kg intravenously daily for 9 days, serum on day 10
# Protocol: 20-day-old CD-1 mice were divided into a vehicle control group (5 mice) and a treatment group (5 mice). Samples of glycopeptide antibiotics were administered at 20 mg/kg intravenously daily for 9 days. Animals were necropsied on day 10 Sera were analyzed for BUN (blood urea nitrogen), creatinine, AST (aspartic aminotransferase), and ALT (alanine aminotransferase) by routine, standard, automated methods using an Hitachi 747 chemistry analyzer.
# Streptococcus sp. = assay: In vitro antibacterial evaluation: minimum inhibitory concentration (MIC), broth dilution method; format: cell-based; details: broth dilution, 5×10^5 CFU/mL, 18 hours at 35° C.
# In short: (§1)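 Inoculum: 5×10^5 CFU/mL. Range: 64-0.06 μg/mL. Medium: Muller-Hinton II […]; NCCLS M7-A2 broth dilution. Endpoint: lowest concentration inhibiting growth. Strains include methicillin-, penicillin- and/or vancomycin-resistant clinical isolates.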
# Escherichia coli = assay: as above; format: cell-based; details: 5×10^5 CFU/mL, 18 hours at 35° C.
# In short: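 NCCLS M7-A2 broth dilution; Muller-Hinton II […]; 5×10^5 CFU/mL; 64-0.06 μg/mL. MIC = lowest concentration with no growth.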
# Enterococcus sp. = assay: as above; format: cell-based; details: broth dilution, 5×10^5 CFU/mL, 18 hours at 35° C.
# In short: as §1
# Staphylococcus sp. = assay: as above; format: cell-based; details: for MIC Staphylococcus aureus-SMITH (GC 4543): strain GC 4543; for MIC Staphylococcus haemolyticus (GC 4546): strain GC 4546; for MIC Coagulase Negative Staphylococcus (GC 4547): strain GC 4547; for MIC Coagulase Negative Staphylococcus (GC 4548): strain GC 4548; for MIC Coagulase Negative Staphylococcus (GC 4549): strain GC 4549; for MIC Coagulase Negative Staphylococcus (GC 4551): strain GC 4551; for MIC Coagulase Negative Staphylococcus (GC 6257): strain GC 6257
# In short: as §1
# [2] = tested on: Enterococcus faecalis (GC 6189), vancomycin resistant strain; assay: Acute lethal infection in mice (ED50); format: in vivo; details: female CD-1 mice, intraperitoneal challenge, intravenous dose 30 min. after infection, 7 day survival ratios
# In short: (§2)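 Female CD-1 mice (20 ± 1-2 g) were infected intraperitoneally with enough bacteria, suspended in Trypticase Soy Broth or hog gastric mucin, to kill untreated controls within 24-48 hr. Compound in saline or 5% dextrose was given intravenously 30 min after infection. ED50 came from pooled 7-day survival over 3 tests.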
# [3] = tested on: Staphylococcus aureus-SMITH (GC 4543); assay: Acute lethal infection in mice (ED50); format: in vivo; details: female CD-1 mice, intraperitoneal challenge, intravenous dose 30 min. after infection, 7 day survival ratios
# In short: as §2
# [4] = Anatomic pathology (heart and kidney histopathology) in mice; format: in vivo, CD-1 mice; details: 20 mg/kg intravenously daily for 9 days, microscopic histopathology on day 10
# In short: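 Juvenile CD-1 mice (20 days old; 5 vehicle, 5 treated) received glycopeptide antibiotic 20 mg/kg i.v. daily for 9 days. Necropsied tissues formalin-fixed, paraffin-embedded, H&E stained and examined microscopically; findings graded slight to severe versus controls.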
# Staphylococcus aureus = assay: Zone of inhibition, assay plate Staphylococcus aureus; format: cell-based; details: 25 μl of extract per 5 mm well, Nutrient Agar pH 6.8, incubated overnight at 37° C.
# Protocol: Inoculate 10 mL of Tryptic Soy Broth with a loopful of slant culture, Staphylococcus aureus, and place in a stationary rack at 37° C. After 16-18 hour incubation, the Optical Density (OD) of the culture is read @ A600 nm, using a 1:10 dilution. OD should be between 0.1-0.3, and if not adjust with Tryptic Soy Broth. A 40 mL sample of Nutrient Agar, pH 6.8 is inoculated with 90 μl of S. aureus culture and poured into a sterile petri dish. When the agar has solidified, wells (5 mm) are plated using an automated welling device. Wells are inoculated with 25 μl of extract and incubated overnight at 37° C. Zones of inhibition are measured and recorded the following morning.
# [5] = broth dilution, 18 hours at 35° C.
structure (smiles),measurement,setting,value
"CC(c1ccccc1)C1NC(=O)CNC(=O)C(CO)NC(=O)C(C(O)C2CNC(=N)N2C2OC(CO)C(O)C(O)C2O)NC(=O)C(C(O)C2CNC(=N)N2)NC(=O)C(Cc2ccc(OC3OC(CO)C(OC4OC5COC(Cc6ccccc6)OC5C(O)C4O)C(O)C3O)cc2)NC1=O (stereo not drawn) [Example 102, Cyclo[glycyl-β-methylphenylalanyl-O-[4-O-(4,6-O-phenethylidenehexopyranosyl)-hexopyranosyl]tyrosyl-3-(2-iminoimidazoliclin-4-yl)seryl-3-(3-hexopyranosyl-2-iminoimidazolidin-4-yl)serylseryl]]","Clinical Chemistry (Day 10) % of Control, AST",[1],+340%
same,"Clinical Chemistry (Day 10) % of Control, Creatinine",[1],+100%
same,MIC Streptococcus pneumoniae (GC 1894),Streptococcus sp.,<0.06 µg/mL
same,MIC Streptococcus pneumonine (ATCC 6301),Streptococcus sp.,<0.06 µg/mL
same,MIC Escherichia coli (GC 4560),Escherichia coli,0.5 to 1 µg/mL
same,MIC Enterococccus avium (GC 4558),Enterococcus sp.,2 to 4 µg/mL
same,MIC Enterococccus faecalis (ATCC 29212),Enterococcus sp.,2 to 4 µg/mL
same,MIC Enterococccus faecalis (GC 2691),Enterococcus sp.,2 to 4 µg/mL
same,MIC Enterococccus faecalis (GC 3059),Enterococcus sp.,2 to 4 µg/mL
same,MIC Enterococccus faecalis (GC 4552),Enterococcus sp.,2 to 4 µg/mL
same,MIC Enterococccus faecalis (GC 4553),Enterococcus sp.,2 to 4 µg/mL
same,MIC Enterococccus faecalis (GC 4554),Enterococcus sp.,2 to 4 µg/mL
same,MIC Enterococccus faecalis (GC 6189),Enterococcus sp.,2 to 4 µg/mL
same,MIC Enterococccus faecium (GC 2243),Enterococcus sp.,2 to 4 µg/mL
same,MIC Enterococccus faecium (GC 4556),Enterococcus sp.,2 to 4 µg/mL
same,MIC Enterococccus faecium (GC 4557),Enterococcus sp.,1 to 2 µg/mL
same,MIC Enterococcus faecalis (GC 2242),Enterococcus sp.,2 to 4 µg/mL
same,MIC Staphylococcus aureus (ATCC 29213),Staphylococcus sp.; strain ATCC 29213,1 to 2 µg/mL
same,MIC Staphylococcus aureus (GC 1131),Staphylococcus sp.; strain GC 1131,2 µg/mL
same,MIC Staphylococcus aureus (GC 3051),Staphylococcus sp.; strain GC 3051,1 µg/mL
same,MIC Staphylococcus aureus (GC 3053),Staphylococcus sp.; strain GC 3053,1 to 2 µg/mL
same,MIC Staphylococcus aureus (GC 4541),Staphylococcus sp.; strain GC 4541,1 to 2 µg/mL
same,MIC Staphylococcus aureus (GC 4542),Staphylococcus sp.; strain GC 4542,0.5 to 1 µg/mL
same,MIC Staphylococcus aureus-SMITH (GC 4543),Staphylococcus sp.; 18 hours at 35° C.,0.5 to 1 µg/mL
same,MIC Staphylococcus aureus-SMITH (GC 4543),Staphylococcus sp.; [5],0.5 to 1 µg/mL
same,MIC Staphylococcus aureus (GC 4544),Staphylococcus sp.; strain GC 4544,1 to 2 µg/mL
same,MIC Staphylococcus aureus (GC 4545),Staphylococcus sp.; strain GC 4545,0.5 to 1 µg/mL
same,MIC Staphylococcus haemolyticus (GC 4546),Staphylococcus sp.,0.5 to 1 µg/mL
same,MIC Staphylococcus haemolyticus (GC 4546),Staphylococcus sp.; [5],0.5 to 1 µg/mL
same,MIC Coagulase Negative Staphylococcus (GC 4547),Staphylococcus sp.,1 µg/mL
same,MIC Coagulase Negative Staphylococcus (GC 4547),Staphylococcus sp.; [5],1 µg/mL
same,MIC Coagulase Negative Staphylococcus (GC 4548),Staphylococcus sp.,0.5 to 1 µg/mL
same,MIC Coagulase Negative Staphylococcus (GC 4548),Staphylococcus sp.; [5],0.5 to 1 µg/mL
same,MIC Coagulase Negative Staphylococcus (GC 4549),Staphylococcus sp.,0.5 to 1 µg/mL
same,MIC Coagulase Negative Staphylococcus (GC 4549),Staphylococcus sp.; [5],0.5 to 1 µg/mL
same,MIC Coagulase Negative Staphylococcus (GC 4551),Staphylococcus sp.,1 to 2 µg/mL
same,MIC Coagulase Negative Staphylococcus (GC 4551),Staphylococcus sp.; [5],1 to 2 µg/mL
same,MIC Coagulase Negative Staphylococcus (GC 6257),Staphylococcus sp.,0.5 µg/mL
same,MIC Coagulase Negative Staphylococcus (GC 6257),Staphylococcus sp.; [5],0.5 µg/mL
same,"median effective dose (ED50), Enterococcus faecalis (GC 6189)",[2],1.04 mg/kg
same,"median effective dose (ED50), Staphylococcus aureus-SMITH (GC 4543)",[3],0.23-0.43
same,"Anatomical Pathology (Day 10), Heart",[4],+++
same,"Anatomical Pathology (Day 10), Kidney",[4],+++
"CC(C)CCC(=O)OC1C(CO)OC(OC2C(CO)OC(Oc3ccc(CC4NC(=O)C(C(C)c5ccccc5)NC(=O)CNC(=O)C(CO)NC(=O)C(C(O)C5CNC(=N)N5C5OC(CO)C(O)C(O)C5O)NC(=O)C(C(O)C5CNC(=N)N5)NC4=O)cc3)C(O)C2O)C(O)C1O (stereo not drawn) [Example 270c, Cyclo[glycyl-β-methylphenylalanyl-O-[4-O-[4-O-(4-methylpentanoyl)hexopyranosyl]-hexopyranosyl]tyrosyl-3-(2-iminoimidazolidin-4-yl)seryl-3-(3-hexopyranosyl-2-iminoimidazolidin-4-yl)serylseryl]]",Zone of Inhibition vs. S. aureus,Staphylococcus aureus,11 mm
"CCC(C)CC(=O)OC1C(CO)OC(OC2C(CO)OC(Oc3ccc(CC4NC(=O)C(C(C)c5ccccc5)NC(=O)CNC(=O)C(CO)NC(=O)C(C(O)C5CNC(=N)N5C5OC(CO)C(O)C(O)C5O)NC(=O)C(C(O)C5CNC(=N)N5)NC4=O)cc3)C(O)C2O)C(O)C1O (stereo not drawn) [Example 271c, Cyclo[glycyl-β-methylphenylalanyl-O-[4-O-[4-O-(3-methylpentanoyl)hexopyranosyl]-hexopyranosyl]tyrosyl-3-(2-iminoimidazolidin-4-yl)seryl-3-(3-hexopyranosyl-2-iminoimidazolidin-4-yl)serylseryl]]",Zone of Inhibition vs. S. aureus,Staphylococcus aureus,12 mm
"CCCC(=O)OC1C(O)C(CO)OC(OC2C(CO)OC(Oc3ccc(CC4NC(=O)C(C(C)c5ccccc5)NC(=O)CNC(=O)C(CO)NC(=O)C(C(O)C5CNC(=N)N5C5OC(CO)C(O)C(O)C5O)NC(=O)C(C(O)C5CNC(=N)N5)NC4=O)cc3)C(O)C2O)C1O (stereo not drawn) [Example 272b, Cyclo[glycyl-β-methylphenylalanyl-O-[4-O-(3-O-butanoyl-hexopyranosyl)-hexopyranosyl]tyrosyl-3-(2-iminoimidazolidin-4-yl)seryl-3-(3-hexopyranosyl-2-iminoimidazolidin-4-yl)serylseryl]]",Zone of Inhibition vs. S. aureus,Staphylococcus aureus,8 mm
CCCCCC(=O)OC1C(O)C(CO)OC(OC2C(CO)OC(Oc3ccc(CC4NC(=O)C(C(C)c5ccccc5)NC(=O)CNC(=O)C(CO)NC(=O)C(C(O)C5CNC(=N)N5C5OC(CO)C(O)C(O)C5O)NC(=O)C(C(O)C5CNC(=N)N5)NC4=O)cc3)C(O)C2O)C1O (stereo not shown) [Example 273b],Zone of Inhibition vs. S. aureus,Staphylococcus aureus,9 mm and 8 mm
"CCCCCCC(=O)OC1C(OC2C(CO)OC(Oc3ccc(CC4NC(=O)C(C(C)c5ccccc5)NC(=O)CNC(=O)C(CO)NC(=O)C(C(O)C5CNC(=N)N5C5OC(CO)C(O)C(O)C5O)NC(=O)C(C(O)C5CNC(=N)N5)NC4=O)cc3)C(O)C2O)OC(CO)C(O)C1O (stereo not drawn) [Example 274a, Cyclo[glycyl-β-methylphenylalanyl-O-[4-O-(2-O-heptanoyl-hexopyranosyl)-hexopyranosyl]tyrosyl-3-(2-iminoimidazolidin-4-yl)seryl-3-(3-hexopyranosyl-2-iminoimidazolidin-4-yl)serylseryl]]",Zone of Inhibition vs. S. aureus,Staphylococcus aureus,9 mm
"CCCCCCC(=O)OC1C(O)C(CO)OC(OC2C(CO)OC(Oc3ccc(CC4NC(=O)C(C(C)c5ccccc5)NC(=O)CNC(=O)C(CO)NC(=O)C(C(O)C5CNC(=N)N5C5OC(CO)C(O)C(O)C5O)NC(=O)C(C(O)C5CNC(=N)N5)NC4=O)cc3)C(O)C2O)C1O (stereo not drawn) [Example 274b, Cyclo[glycyl-β-methylphenylalanyl-O-[4-O-(3-O-heptanoyl-hexopyranosyl)-hexopyranosyl]tyrosyl-3-(2-iminoimidazolidin-4-yl)seryl-3-(3-hexopyranosyl-2-iminoimidazolidin-4-yl)serylseryl]]",Zone of Inhibition vs. S. aureus,Staphylococcus aureus,10 mm
